PubChem BioAssay AID210 (DTP/NCI, 2004)
Where “and” joins values, the source holds several entries; their conditions need not be identical. Equal entries are not always repeated. Inconclusive results and toxic doses are left out.

Test system: CD2F1 mice, ip Colon 26 adenocarcinoma, median survival T/C
Test: NCI In Vivo Anticancer Drug Screen. Data for tumor model Colon 26 Adenocarcinoma (intraperitoneal) in CD2F1 (CDF1) mice
Details: endpoint: median survival time, higher = longer survival
Experimental: The antitumor activity of compounds was measured in mice bearing transplantable tumors. Survival or tumor size were measured and the results are expressed as the measurement made in the treated group (T) divided by the measurement made in the vehicle treated control group (C). The tumor model used in this assay is Colon 26 Adenocarcinoma (intraperitoneal) in CD2F1 (CDF1) mice

Compound: O=C1c2ccccc2C(=O)c2c(NCCNCCO)ccc(NCCNCCO)c21
- T/C (dose: 2.0 mg/kg/injection, schedule: Q01DX009 (ip), vehicle: saline): 191 % of control
- T/C (dose: 2.5 mg/kg/injection, schedule: Q01DX009 (ip), vehicle: saline): 200 % of control and 223 % of control
- T/C (dose: 2.62 mg/kg/injection, schedule: Q01DX009 (ip), vehicle: saline): 172 % of control
- T/C (dose: 3.89 mg/kg/injection, schedule: Q01DX009 (ip), vehicle: saline): 209 % of control
- T/C (dose: 3.89 mg/kg/injection, schedule: Q01DX009 (sc), vehicle: saline): 104 % of control
- T/C (dose: 4.0 mg/kg/injection, schedule: Q01DX009 (ip), vehicle: acid diluted with saline): 182 % of control
- T/C (dose: 4.0 mg/kg/injection, schedule: Q01DX009 (ip), vehicle: saline): 226 % of control
- T/C (dose: 5.0 mg/kg/injection, schedule: Q01DX009 (ip), vehicle: saline): 193 % of control and 223 % of control
- T/C (dose: 5.25 mg/kg/injection, schedule: Q01DX009 (ip), vehicle: saline): 213 % of control
- T/C (dose: 6.22 mg/kg/injection, schedule: Q04DX003 (iv), vehicle: saline): 110 % of control
- T/C (dose: 6.48 mg/kg/injection, schedule: Q01DX009 (ip), vehicle: saline): 209 % of control
- T/C (dose: 6.48 mg/kg/injection, schedule: Q01DX009 (sc), vehicle: saline): 104 % of control
- T/C (dose: 7.78 mg/kg/injection, schedule: Q01DX001 (iv), vehicle: saline): 104 % of control
- T/C (dose: 8.0 mg/kg/injection, schedule: Q01DX009 (ip), vehicle: acid diluted with saline): 219 % of control
- T/C (dose: 8.0 mg/kg/injection, schedule: Q01DX009 (ip), vehicle: saline): 236 % of control
- T/C (dose: 8.0 mg/kg/injection, schedule: Q04DX003 (ip), vehicle: Klucel (hydroxypropylcellulose) (HPC)): 168 % of control
- T/C (dose: 8.0 mg/kg/injection, schedule: Q04DX003 (ip), vehicle: water): 121 % of control and 209 % of control
- T/C (dose: 10.0 mg/kg/injection, schedule: Q01DX009 (ip), vehicle: saline): 212 % of control and 267 % of control
- T/C (dose: 10.4 mg/kg/injection, schedule: Q04DX003 (iv), vehicle: saline): 106 % of control
- T/C (dose: 10.5 mg/kg/injection, schedule: Q01DX009 (ip), vehicle: saline): 294 % of control
- T/C (dose: 10.8 mg/kg/injection, schedule: Q01DX009 (ip), vehicle: saline): 182 % of control
- T/C (dose: 10.8 mg/kg/injection, schedule: Q01DX009 (sc), vehicle: saline): 105 % of control
- T/C (dose: 13.0 mg/kg/injection, schedule: Q01DX001 (iv), vehicle: saline): 116 % of control
- T/C (dose: 16.0 mg/kg/injection, schedule: Q01DX009 (ip), vehicle: acid diluted with saline): 219 % of control
- T/C (dose: 16.0 mg/kg/injection, schedule: Q01DX009 (ip), vehicle: saline): 305 % of control
- T/C (dose: 16.0 mg/kg/injection, schedule: Q04DX003 (ip), vehicle: Klucel (hydroxypropylcellulose) (HPC)): 200 % of control and 170 % of control and 220 % of control
- T/C (dose: 16.0 mg/kg/injection, schedule: Q04DX003 (ip), vehicle: water): 188 % of control and 287 % of control
- T/C (dose: 17.3 mg/kg/injection, schedule: Q04DX003 (ip), vehicle: saline): 189 % of control
- T/C (dose: 17.3 mg/kg/injection, schedule: Q04DX003 (iv), vehicle: saline): 101 % of control
- T/C (dose: 18.0 mg/kg/injection, schedule: Q01DX009 (ip), vehicle: saline): 182 % of control
- T/C (dose: 18.0 mg/kg/injection, schedule: Q01DX009 (sc), vehicle: saline): 99 % of control
- T/C (dose: 20.0 mg/kg/injection, schedule: Q01DX009 (ip), vehicle: saline): 193 % of control
- T/C (dose: 21.0 mg/kg/injection, schedule: Q01DX009 (ip), vehicle: saline): 268 % of control
- T/C (dose: 21.6 mg/kg/injection, schedule: Q01DX001 (iv), vehicle: saline): 100 % of control
- T/C (dose: 25.0 mg/kg/injection, schedule: Q07DX003 (iv), vehicle: Klucel (hydroxypropylcellulose) (HPC)): 104 % of control
- T/C (dose: 28.8 mg/kg/injection, schedule: Q04DX003 (ip), vehicle: saline): 150 % of control
- T/C (dose: 28.8 mg/kg/injection, schedule: Q04DX003 (iv), vehicle: saline): 101 % of control
- T/C (dose: 30.0 mg/kg/injection, schedule: Q01DX009 (sc), vehicle: saline): 90 % of control
- T/C (dose: 32.0 mg/kg/injection, schedule: Q01DX009 (ip), vehicle: acid diluted with saline): 274 % of control
- T/C (dose: 32.0 mg/kg/injection, schedule: Q04DX003 (ip), vehicle: Klucel (hydroxypropylcellulose) (HPC)): 162 % of control and 182 % of control
- T/C (dose: 32.0 mg/kg/injection, schedule: Q04DX003 (ip), vehicle: water): 159 % of control and 287 % of control
- T/C (dose: 36.0 mg/kg/injection, schedule: Q01DX001 (iv), vehicle: saline): 109 % of control
- T/C (dose: 42.0 mg/kg/injection, schedule: Q01DX009 (ip), vehicle: saline): 268 % of control
- T/C (dose: 48.0 mg/kg/injection, schedule: Q04DX003 (ip), vehicle: saline): 161 % of control
- T/C (dose: 48.0 mg/kg/injection, schedule: Q04DX003 (iv), vehicle: saline): 108 % of control
- T/C (dose: 50.0 mg/kg/injection, schedule: Q07DX003 (iv), vehicle: Klucel (hydroxypropylcellulose) (HPC)): 108 % of control
- T/C (dose: 60.0 mg/kg/injection, schedule: Q01DX001 (iv), vehicle: saline): 105 % of control
- T/C (dose: 64.0 mg/kg/injection, schedule: Q04DX003 (ip), vehicle: Klucel (hydroxypropylcellulose) (HPC)): 163 % of control and 173 % of control
- T/C (dose: 64.0 mg/kg/injection, schedule: Q04DX003 (ip), vehicle: water): 177 % of control and 209 % of control
- T/C (dose: 80.0 mg/kg/injection, schedule: Q04DX003 (ip), vehicle: saline): 165 % of control

Compound: Cc1c2oc3c(C)c(N)cc(C(=O)NC4C(=O)NC(C(C)C)C(=O)N5CCCC5C(=O)N(C)CC(=O)N(C)C(C(C)C)C(=O)OC4C)c3nc-2c(C(=O)NC2C(=O)NC(C(C)C)C(=O)N3CCCC3C(=O)N(C)CC(=O)N(C)C(C(C)C)C(=O)OC2C)c(N)c1=O (stereo not drawn)
- T/C (dose: 500.0 micrograms/kg/injection, schedule: Q01DX001 (ip), vehicle: saline + alcohol): 102 % of control
- T/C (dose: 1000.0 micrograms/kg/injection, schedule: Q01DX001 (ip), vehicle: saline + alcohol): 102 % of control

Compound: CCCC(=O)OCc1cc(=O)n(C)c2c3c4c(cc12)c(C)cc(=O)n4CO3
- T/C (dose: 6.25 mg/kg/injection, schedule: Q04DX003 (ip), vehicle: Klucel (hydroxypropylcellulose) (HPC)): 98 % of control
- T/C (dose: 12.5 mg/kg/injection, schedule: Q04DX003 (ip), vehicle: Klucel (hydroxypropylcellulose) (HPC)): 104 % of control
- T/C (dose: 25.0 mg/kg/injection, schedule: Q04DX003 (ip), vehicle: Klucel (hydroxypropylcellulose) (HPC)): 123 % of control
- T/C (dose: 100.0 mg/kg/injection, schedule: Q04DX003 (ip), vehicle: Klucel (hydroxypropylcellulose) (HPC)): 152 % of control

Compound: Cc1cc(C)c(-c2cc(O)c(C)cc2O)c(C)c1
- T/C (dose: 12.5 mg/kg/injection, schedule: Q04DX003 (ip), vehicle: saline with Tween-80): 107 % of control
- T/C (dose: 25.0 mg/kg/injection, schedule: Q04DX003 (ip), vehicle: saline with Tween-80): 109 % of control
- T/C (dose: 50.0 mg/kg/injection, schedule: Q04DX003 (ip), vehicle: saline with Tween-80): 106 % of control
- T/C (dose: 100.0 mg/kg/injection, schedule: Q04DX003 (ip), vehicle: saline with Tween-80): 112 % of control
- T/C (dose: 200.0 mg/kg/injection, schedule: Q04DX003 (ip), vehicle: saline with Tween-80): 112 % of control

Compound: CSc1cc(=O)n2c3ccccc3c3ccnc1c32
- T/C (dose: 2.5 mg/kg/injection, schedule: Q04DX003 (ip), vehicle: saline with Tween-80): 100 % of control
- T/C (dose: 5.0 mg/kg/injection, schedule: Q04DX003 (ip), vehicle: saline with Tween-80): 115 % of control
- T/C (dose: 20.0 mg/kg/injection, schedule: Q04DX003 (ip), vehicle: saline with Tween-80): 151 % of control

Compound: CC1(CO)C(=O)CCC2(C)C1CCC1CC3CC12CCC3(O)CO (stereo not drawn)
- T/C (dose: 37.5 mg/kg/injection, schedule: Q04DX002 (ip), vehicle: distilled water + Tween-80): 97 % of control
- T/C (dose: 75.0 mg/kg/injection, schedule: Q04DX002 (ip), vehicle: distilled water + Tween-80): 101 % of control
- T/C (dose: 150.0 mg/kg/injection, schedule: Q04DX002 (ip), vehicle: distilled water + Tween-80): 94 % of control

Compound: CC(=O)OCC(=O)[C@@]12OC(C)(C)O[C@@H]1C[C@H]1[C@@H]3CC(C=O)=C4C=C(OCCCl)CC[C@]4(C)[C@@]3(F)[C@@H](O)C[C@@]12C
- T/C (dose: 0.39 mg/kg/injection, schedule: Q04DX002 (ip), vehicle: Klucel (hydroxypropylcellulose) (HPC)): 94 % of control
- T/C (dose: 0.78 mg/kg/injection, schedule: Q04DX002 (ip), vehicle: Klucel (hydroxypropylcellulose) (HPC)): 89 % of control
- T/C (dose: 1.56 mg/kg/injection, schedule: Q04DX002 (ip), vehicle: Klucel (hydroxypropylcellulose) (HPC)): 93 % of control
- T/C (dose: 3.13 mg/kg/injection, schedule: Q04DX002 (ip), vehicle: Klucel (hydroxypropylcellulose) (HPC)): 95 % of control
- T/C (dose: 6.25 mg/kg/injection, schedule: Q04DX002 (ip), vehicle: Klucel (hydroxypropylcellulose) (HPC)): 91 % of control
- T/C (dose: 12.5 mg/kg/injection, schedule: Q04DX002 (ip), vehicle: Klucel (hydroxypropylcellulose) (HPC)): 88 % of control
